Data set [1] deals with Balb/c mice exposed to acute treatment with Oxaliplatin. In words: Dynamic test (mechanical pain threshold) after a single oxaliplatin administration. Type of data set: in vivo, mouse. Conditions: 24 hours after single OXA 3.5 mg/kg iv, DTG 4 mg/kg ip 1 hour before, CPC 4 mg/kg iv co-administered. Here is the method:
OXA vehicle, OXA, CPC, DTG, DTG+OXA and CPC+OXA were administered once time. In the group co-administered with OXA and DTG. DTG was injected intraperitoneally 1 hour before the administration of OXA. In the group co-administered with OXA and CPC, CPC was co-administered with OXA intravenously. Mechanical allodynia and cold sensory threshold (dynamic test and cold plate test) were performed 24 and 48 hours after the treatment, respectively, using the methods described in EXAMPLE 15 Plasma Sample Collection

The conditions of data set [2]: 14-week toxicity study in monkey, females, PMDA 2012, cited from earlier work.
Data set [3] relates to Balb/c mice exposed to chronic treatment with Oxaliplatin. In words: Caudal nerve conduction study in chronic oxaliplatin neuropathy model. Conditions: for caudal nerve action potential amplitude / caudal nerve conduction velocity: OXA 3.5 mg/kg iv, 8 cycles ± BFMD 30 mg/kg ip + 15 mg/kg iv. Format: in vivo, mouse. Here is the method:
The development of peripheral neuropathy after chronic administration of drugs was assessed by evaluating the nerve conduction velocity (NCV) along caudal and digital nerve using an electromyography apparatus (Myto2 ABN Neuro, Firenze, Italy). Caudal NCV was determined by placing a couple of recording needle electrodes at the base of the tail and a couple of stimulating needle electrodes 3.5 cm distally to the recording points. Similarly, the digital NCV was determined by placing the recording electrodes close to the ankle bone and the stimulating electrodes close to the fourth toe near the digital nerve. The intensity, duration and frequency of stimulation were set up in order to obtain optimal results. All the neurophysiological determinations were performed under standard conditions in a temperature-controlled room (22+/−2° C.) and the animal under isoflurane anesthesia along the whole procedure with continuous monitoring of vital signs.

Data set [4] in a line: Tissue platinum accumulation by atomic absorption after 8 cycles of oxaliplatin. The conditions noted are these: buflomedil 80 mg/kg po; 8 cycles OXA; 24 h after last administration. Type of data set: in vivo, mouse. Here is the method:
At the end of 8 cycles of treatment, cold plate test, dynamic test and NCS test were conducted in all mice. Platinum content in DRG, Sciatic nerves and kidney of 3 mice each in the OXA and OXA+BFMD groups, was measured using the method below. The tissue total platinum concentration was determined on frozen sciatic nerve. […] For each tissue, a calibration with control standard tissue was generated. All frozen test samples and standards were treated for a digestion process with a specific HNO3: HCl solution (1:3). The samples obtained after digestion were analyzed by “Atomic Absorption” (Analyst 600 Perkin Elmer, Monza, Italy), and platinum tissue concentration was calculated accordingly.

A further data set concerns OCT2 and MATE1. In words: Buflomedil inhibition of OCT2 and MATE1 with cisplatin or oxaliplatin as substrate (FIG. 15B). Format: cell-based, human.
Data set [5] concerns male wistar rats treated with cisplatin. In words: Cisplatin nephrotoxicity in Wistar rats (Example 9). Type of data set: in vivo, rat. Conditions: co-administration with cisplatin 11 mg/kg IV; 72 hrs post treatment; expected.
The subject of data set [6] is Balb/c mice exposed to chronic treatment with Oxaliplatin. In words: Cold Plate Test in chronic oxaliplatin neuropathy model. Type of data set: in vivo, mouse. Conditions: for Cold Plate Test pain signs after third injection / Cold Plate Test pain signs at the end of treatment (eight injections): OXA 3.5 mg/kg iv ± BFMD 30 mg/kg ip + 15 mg/kg iv; for Cold Plate Test pain signs after third injection: 3 cycles. Here is the method: Cold Plate Test was used to determine the alterations in cold temperature related pain perception and their changes due to pharmacological treatment. Cold Plate Test was performed by using an apparatus (35100—Hot/Cold Plate. Ugo Basile instruments) composed by a Plexiglas cylinder and a thermostatic plate, able to reach variable temperatures. The mice were placed on the plate set at +4° C., free to move and walk. Two blinded experimenters simultaneously determine the number of pain signs (e.g. jumping, licking, etc.) in a trial of 5 minutes.

The test system of data set [7] is cells co-expressing OCT2 and MATE1. In words: Intracellular oxaliplatin content in cells co-expressing OCT2 and MATE1. Format: cell-based. The conditions noted are these: oxaliplatin 100 μM in 4% BSA HBSS, 90 min. The source says:
In most naturally occurring cells, uptake transporters co-exist with efflux transporters. It is the interplay between the uptake and efflux transporters that determines the net intracellular accumulation of a substrate. One example is in the proximal tubule epithelial cells in the kidney, where the basolaterally expressed transporters, mainly OCT2, work in concert with the apically expressed MATE1 and MATE2K [5]. […] Cells with single expression of OCT2 or GFP mock were also used as a control.

For data set [8] the following is noted: human, in vivo.
For data set [9], the target named is T1, OCT2 over OCT3, MATE1 and MATE2K (Homo sapiens, UniProt O15244).
T1 sequence (O15244 1-555): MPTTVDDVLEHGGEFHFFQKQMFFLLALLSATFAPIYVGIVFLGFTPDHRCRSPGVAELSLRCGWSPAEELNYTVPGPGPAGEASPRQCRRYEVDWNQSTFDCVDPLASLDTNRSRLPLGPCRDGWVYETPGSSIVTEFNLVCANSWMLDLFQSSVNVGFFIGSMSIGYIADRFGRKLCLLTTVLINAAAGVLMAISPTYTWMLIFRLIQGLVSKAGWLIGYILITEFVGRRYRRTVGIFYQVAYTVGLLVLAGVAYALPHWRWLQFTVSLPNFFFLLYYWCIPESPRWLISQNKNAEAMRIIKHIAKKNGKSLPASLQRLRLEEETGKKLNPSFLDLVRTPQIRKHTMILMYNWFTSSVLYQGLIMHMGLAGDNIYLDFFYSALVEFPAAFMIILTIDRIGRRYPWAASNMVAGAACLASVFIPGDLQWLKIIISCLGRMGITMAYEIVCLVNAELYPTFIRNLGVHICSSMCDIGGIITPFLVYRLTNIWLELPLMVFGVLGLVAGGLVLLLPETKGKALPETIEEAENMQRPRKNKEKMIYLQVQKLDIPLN
In words: Inhibition of OCT2-mediated oxaliplatin transport in 100% human serum or HBSS containing 4% BSA (IC50,app). Conditions: human, MDCK-II cells transfected with human transporters, selectivity between OCT2 and OCT3, MATE1 and MATE2K, oxaliplatin transport.
Text: Fully confluent MDCK cell monolayers were transfected with either cDNA plasmids encoding the human transporter to be tested or a GFP control. […] The cells were then washed with ice-cold PBS and lysed with 50:50 acetonitrile:H2O. Intracellular content of the substrate was quantified by LC/MS/MS or a MicroBeta radiometric plate reader.

Where [10] appears, read: buflomedil 80 mg/kg po 2 hours before OXA, 8 cycles, n=3/group.

Molecules are shown by their SMILES. “Also recorded” adds a separate entry of the source.

Here are results for three compounds from patent US11197862B2, “Methods of preventing toxicity of platinum drugs” (XOMICS BIOPHARMA, INC., priority 2015, dated 2021).

In the case of `C[C@@H]1CCO[C@H]2Cn3cc(C(=O)NCc4ccc(F)cc4F)c(=O)c(O)c3C(=O)N12` [Dolutegravir], the entries for the “Mechanical Pain Threshold (MPT), mechanical hypersensitivity” value in data set [1] and in [1] (listed as DTG) were “effective on reducing mechanical hypersensitivity” and “nearly completely alleviated mechanical hypersensitivity”, respectively. The “mean plasma Cmax at the NOAEL dose” value in data set [2] was 23500 ng/mL. The Cmax – broadly, the maximum level reached in the sampled fluid or tissue – in data set [2] (read-out: mean plasma Cmax at the NOAEL dose) was 54.8 µM.
For the compound `COc1cc(OC)c(C(=O)CCCN2CCCC2)c(OC)c1` [Buflomedil, 4-pyrrolidin-1-yl-1-(2,4,6-trimethoxyphenyl)butan-1-one], in [3] (listed as BFMD), the “caudal nerve action potential amplitude” value is “no statistically significant difference among CTRL. BFMD and OXA+BFMD groups”; the “caudal nerve conduction velocity” value was “small but statistically significant increase when compared to OXA alone”. In data set [3] (listed as buflomedil), the “caudal nerve action potential amplitude” value is on record as “effective on reducing peripheral neurotoxicity” and the “caudal nerve conduction velocity” value was “effective on reducing peripheral neuropathy”. The “nerve injury assessed by caudal NCV” value in data set [3] (setting [10]) is “effective on reducing nerve injury; also recorded: showed protective effects against OXAIPN”. For the same compound, in data set [4], the “platinum (oxaliplatin) accumulation in DRG” value is “effective on reducing platinum accumulation in DRG; also recorded: significant decrease in oxaliplatin accumulation in DRG”, the “platinum (oxaliplatin) accumulation in kidney” value is given as “effective on reducing platinum accumulation; also recorded: reduced oxaliplatin accumulation in the kidney” and the “platinum (oxaliplatin) accumulation in sciatic nerves” value is recorded as “such decrease was not seen in sciatic nerves”. Besides, in the data set with OCT2 and MATE1, the “difference in IC50s between oxaliplatin and cisplatin as substrate (OCT2 or MATE1)” value is “nearly identical IC50s; also recorded: no/minimal difference in its IC50s”; the “selectivity toward OCT2 over MATE1, cisplatin or oxaliplatin as substrate” value is recorded as “great selectivity toward OCT2”. Also, the “serum BUN values” in data set [5] was “lowers the BUN values”. Also, the “Cold Plate Test pain signs after third injection” value in data set [6] (listed as BFMD) is recorded as “only the group treated with OXA alone showed a significant increase in pain signs”. Besides, the “Cold Plate Test pain signs after third injection” value in data set [6] (listed as buflomedil) is listed as “effective on reducing cold allodynia”. The “Cold Plate Test pain signs at the end of treatment (eight injections)” value in [6] (8 cycles, listed as BFMD) was “significant decrease in pain signs versus OXA alone”. Besides, the “Cold Plate Test pain signs at the end of treatment (eight injections)” value in [6] (8 cycles, listed as buflomedil) is listed as “effective on reducing cold allodynia”. In addition, the “cold allodynia (cold plate test)” value in [6] (setting [10]) was “effective on reducing mechanical (FIG. 30A) and cold (FIG. 30B) allodynia; also recorded: showed protective effects against OXAIPN”. Besides, the “cellular accumulation of oxaliplatin in cells co-expressing OCT2 and MATE1” value in [7] is listed as “reduced cellular accumulation of oxaliplatin”.
For `Clc1ccc(COC(Cn2ccnc2)c2ccc(Cl)cc2Cl)c(Cl)c1` (centres unmarked) [Miconazole], the “Plasma peak unbound concentration Cmax,u” value in data set [8] is 1.19 µM. Further, the selectivity ratio in [9] was above 10.
